Measured values taken from patent publication US20250296940A1, “ANNULATED 2-AMINO-3-CYANO THIOPHENES AND DERIVATIVES FOR THE TREATMENT OF CANCER” (Boehringer Ingelheim Int'l GmbH Corp., priority 2021, published 2025).
pIC50: −log10 of the molar value.

Target: T1, protein-protein interaction between SOS1 and KRAS G12C (Homo sapiens, UniProt P01116, C118S/C51S/C80L/G12C)
T1 construct: His6 (N); SOS1: in-house or Viva Biotech Ltd; host or cells: E. coli (KRAS)
Assay: KRAS::SOS1 AlphaScreen Binding Assay
Details: Table 19, intermediates C-3/C-4; 7.5 nM KRAS G12C, 10 μM GDP, 5 nM GST-SOS1; read-out: IC50 G12C::SOS 1
Excerpt: This assay can be used to examine the potency with which compounds according to the invention binding to KRAS G12C inhibit the protein-protein interaction between SOS1 and KRAS G12C. […] Low IC50 values in this assay setting are indicative of strong inhibition of protein-protein interaction between SOS1 and KRAS:
• GST-tagged SOS1 (564_1049_GST_TEV_ECO) produced in-house • GST-TEV-SOS1 (564-1049) is purchased from Viva Biotech Ltd. • The expression construct of KRAS G12C (amino acids 1-169 of reference sequence P01116-2 (uniprot), with additional mutations: C51S, C80L, and C118S) containing a C-terminal avi-tag was obtained by gene synthesis (GeneArt, Thermo Fisher) in donor vector (pDONR-221) and transferred by recombinant cloning into pDEST17 vector bearing an N-terminal His6-tag. The protein was expressed in E. coli and the purified protein was biotinylated with the E. coli biotin ligase (BirA) before usage. • GDP (Sigma Cat No G7127) • AlphaLISA Glutathione Acceptor Beads (PerkinElmer, Cat No AL109) • AlphaScreen Streptavidin Donor Beads (PerkinElmer Cat No 6760002) • Assay plates: Proxiplate-384 PLUS, white (PerkinElmer, Cat No 6008289)
7.5 nM (final assay concentration) KRAS G12C, 10 μM (final assay concentration) GDP and 5 nM (final assay concentration) GST-SOS1 are mixed in assay buffer prior to use and kept at room temperature.
AlphaLISA Glutathione Acceptor Beads and AlphaScreen Streptavidin Donor Beads are mixed in assay buffer at a concentration of 10 μg/mL (final assay concentration) each prior to use and kept at room temperature.
Compounds are diluted to a final start concentration of 100 μM and are tested in duplicate. Assay-ready plates (ARPs) are generated using an Access Labcyte Workstation with a Labcyte Echo 550 or 555 acoustic dispenser. For compound a start concentration of 100 μM, 150 nL of compound solution is transferred per well in 11 concentrations in duplicate with serial 1:5 dilutions.
The assay is run using a fully automated robotic system in a darkened room below 100 Lux. 10 μL of KRAS::SOS1 GDP mix is added into columns 1-24 to the 150 nL of compound solution (final dilution in the assay 1:100, final DMSO concentration 1%).
After 30 minutes incubation time 5 μL of bead mix is added into columns 1-23. Plates are kept at room temperature in a darkened incubator. After further 60 minutes incubation, the signal is measured using a PerkinElmer Envision HTS Multilabel Reader using the AlphaScreen specifications from PerkinElmer. Each plate contains the following controls: • diluted DMSO+KRAS::SOS1 GDP mix+bead mix • diluted DMSO+KRAS::SOS1 GDP mix
IC50 values are calculated and analyzed using a 4 parametric logistic model.
Tables of example compounds disclosed herein contain IC50 values determined using the above assay.

T1 sequence (P01116 1-169 isoform P01116-2 G12C/C51S/C80L/C118S): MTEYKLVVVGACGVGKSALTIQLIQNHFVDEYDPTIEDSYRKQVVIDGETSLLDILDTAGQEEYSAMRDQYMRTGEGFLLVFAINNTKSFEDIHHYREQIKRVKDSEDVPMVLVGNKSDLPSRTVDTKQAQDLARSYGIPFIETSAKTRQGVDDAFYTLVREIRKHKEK

SMILES | pIC50
C[C@H](Oc1cc(N2C[C@H](C)N[C@@H](C)C2)nc(-c2onc3c2CCC[C@@]32CCCc3sc(N)c(C#N)c32)n1)[C@@H]1CCCN1C [C-3a] | 8.34
CNC1CCN(c2cc(O[C@@H](C)[C@@H]3CCCN3C)nc(-c3noc4c3CCC[C@@]43CCCc4sc(N)c(C#N)c43)n2)CC1 [C-4e] | 8.05
C[C@H](Oc1cc(N2CCNC3(CC3)C2)nc(-c2onc3c2CCC[C@@]32CCCc3sc(N)c(C#N)c32)n1)[C@@H]1CCCN1C [C-3b] | 8.60
C[C@H](Oc1cc(N2CCNC3(CC3)C2)nc(-c2noc3c2CCC[C@@]32CCCc3sc(N)c(C#N)c32)n1)[C@@H]1CCCN1C [C-4b] | 8.72
C[C@H](Oc1cc(N2C[C@H](C)N[C@@H](C)C2)nc(-c2noc3c2CCC[C@@]32CCCc3sc(N)c(C#N)c32)n1)[C@@H]1CCCN1C [C-4a] | 8.62

Next, values leading:

pIC50 | SMILES
7.35 | C[C@H](Oc1nc(-c2onc3c2CCC[C@@]32CCCc3sc(N)c(C#N)c32)cc(N2CCNC3(CC3)C2)n1)[C@@H]1CCCN1C [C-3e]
7.43 | C[C@H](Oc1nc(-c2noc3c2CCC[C@@]32CCCc3sc(N)c(C#N)c32)cc(N2C[C@H](C)N[C@@H](C)C2)n1)[C@@H]1CCCN1C [C-4c]
8.39 | C[C@H](Oc1cc(N2C[C@H](C)NC3(CC3)C2)nc(-c2onc3c2CCC[C@@]32CCCc3sc(N)c(C#N)c32)n1)[C@@H]1CCCN1C [C-3d]
8.49 | C[C@H](Oc1cc(N2CCNCC2)nc(-c2noc3c2CCC[C@@]32CCCc3sc(N)c(C#N)c32)n1)[C@@H]1CCCN1C [C-4d]
